Test results published in patent US4138554A, “7-[D-α-(4-Hydroxy-1,5-naphthyridine-3-carboxamido)-α-phenyl (and p-hydroxyphenyl)acetamido]-3-carbamoyloxymethyl-3-cephem-4-carboxylic acids” (priority 1977, dated 1979).
Values after ≈ are worked out from the molar mass of the structure shown. Like-named read-outs stand apart in the source and are kept apart here.

Experiments:
Format in all cases: cell-based
P. mirabilis = experiment: MIC by serial two-fold agar dilution (Mueller-Hinton agar), P. mirabilis; conditions: Proteus mirabilis; P. mirabilis, Table 1; read-out: MIC
Description: (§1) Minimum inhibitory concentrations (MIC) of BB-S520 were determined by serial two-fold agar dilution method using Steers' apparatus on Meuller-Hinton agar plate against 31 test organisms for the primary screening and also against 61 strains of Pseudomonas aeruginosa for the secondary evaluation. The results are shown in Table 1 and Table 2 along with those of BB-S514 and sulbenicillin.
(§2) Minimum inhibitory concentrations (MIC) of cephalosporins in the present study were determined by serial two-fold agar dilution method using Steers' apparatus on Mueller-Hinton agar plate against 31 test organisms for the primary screening and also against 61 strains of Pseudomonas aeruginosa for the secondary evaluation.

[1] = tested on: Gram-positive (6 strains); experiment: Mean % relative activity (MIC) vs sulbenicillin, Gram-positive (6 strains); conditions: Gram-positive (6 strains), from geometric means of MICs in Table 1
Description: as §1, §2

E. cloacae = experiment: MIC by serial two-fold agar dilution (Mueller-Hinton agar), E. cloacae; conditions: Enterobacter cloacae, Table 1
Description: as §1, §2

[2] = tested on: Gram-negative (19 strains); experiment: Mean % relative activity (MIC) vs sulbenicillin, Gram-negative (19 strains); conditions: Gram-negative (19 strains), from geometric means of MICs in Table 1
Description: as §1, §2

Pseudomonas aeruginosa = experiment: MIC by agar dilution against 61 strains of Pseudomonas aeruginosa, secondary evaluation; conditions: for MIC: Pseudomonas aeruginosa, read-out: MIC
Description: as §1, §2

S. enteritidis = experiment: MIC by serial two-fold agar dilution (Mueller-Hinton agar), S. enteritidis; conditions: Salmonella enterica; S. enteritidis, Table 1; read-out: MIC
Description: as §1, §2

Compound: CC(=O)OCC1=C(C(=O)O)N2C(=O)C(NC(=O)C(NC(=O)c3cnc4cccnc4c3O)c3ccccc3)C2SC1 (stereo not drawn) [BB-S514]
- MIC (P. mirabilis): 0.8 µg/mL (≈ 1.39 µM)
- Mean % Relative Activity (Sulbenicillin = 100%) [1]: 71%
- MIC (E. cloacae; E. cloacae (1st line)): 25 µg/mL (≈ 43.3 µM)
- MIC (E. cloacae; E. cloacae (2nd line)): 50 µg/mL (≈ 86.6 µM)
- MIC (E. cloacae; E. cloacae (3rd line)): 25 µg/mL (≈ 43.3 µM)
- Mean % Relative Activity (Sulbenicillin = 100%) [2]: 96%
- Mean % Relative Activity (Sulbenicillin = 100%) (Pseudomonas aeruginosa; Ps. aeruginosa (61 strains), from geometric means of MICs in Table 2): 480%
- MIC (Pseudomonas aeruginosa; BBRI Pa-No. 1, D15, Table 2): 6.3 µg/mL (≈ 10.9 µM)
- MIC (Pseudomonas aeruginosa; BBRI Pa-No. 2, VA, Table 2): 6.3 µg/mL (≈ 10.9 µM)
- MIC (Pseudomonas aeruginosa; BBRI Pa-No. 3, 1449VA, Table 2): 3.1 µg/mL (≈ 5.37 µM)
- MIC (Pseudomonas aeruginosa; BBRI Pa-No. 4, H9 D113, Table 2): 12.5 µg/mL (≈ 21.6 µM)
- MIC (Pseudomonas aeruginosa; BBRI Pa-No. 5, M4865KC, Table 2): 6.3 µg/mL (≈ 10.9 µM)
- MIC (Pseudomonas aeruginosa; BBRI Pa-No. 6, No. 5, Table 2): 25 µg/mL (≈ 43.3 µM)
- MIC (Pseudomonas aeruginosa; BBRI Pa-No. 7, Table 2): 12.5 µg/mL (≈ 21.6 µM)
- MIC (Pseudomonas aeruginosa; BBRI Pa-No. 8, Table 2): 6.3 µg/mL (≈ 10.9 µM)
- MIC (Pseudomonas aeruginosa; BBRI Pa-No. 9, Yale, Table 2): 6.3 µg/mL (≈ 10.9 µM)
- MIC (Pseudomonas aeruginosa; BBRI Pa-No. 10, Table 2): 50 µg/mL (≈ 86.6 µM)
- MIC (Pseudomonas aeruginosa; BBRI Pa-No. 11, Table 2): 6.3 µg/mL (≈ 10.9 µM)
- MIC (Pseudomonas aeruginosa; BBRI Pa-No. 12, Table 2): 6.3 µg/mL (≈ 10.9 µM)
- MIC (Pseudomonas aeruginosa; BBRI Pa-No. 14, Table 2): 6.3 µg/mL (≈ 10.9 µM)
- MIC (Pseudomonas aeruginosa; BBRI Pa-No. 15, Table 2): 12.5 µg/mL (≈ 21.6 µM)
- MIC (Pseudomonas aeruginosa; BBRI Pa-No. 16, No. 130, Table 2): 1.6 µg/mL (≈ 2.77 µM)
- MIC (Pseudomonas aeruginosa; BBRI Pa-No. 17, H6 D114, Table 2): 3.1 µg/mL (≈ 5.37 µM)
- MIC (Pseudomonas aeruginosa; BBRI Pa-No. 18, H8 D121, Table 2): 6.3 µg/mL (≈ 10.9 µM)
- MIC (Pseudomonas aeruginosa; BBRI Pa-No. 19, Table 2): 3.1 µg/mL (≈ 5.37 µM)
- MIC (Pseudomonas aeruginosa; BBRI Pa-No. 20, Table 2): 6.3 µg/mL (≈ 10.9 µM)
- MIC (Pseudomonas aeruginosa; BBRI Pa-No. 21, Table 2): 6.3 µg/mL (≈ 10.9 µM)
- MIC (Pseudomonas aeruginosa; BBRI Pa-No. 23, Table 2): 6.3 µg/mL (≈ 10.9 µM)
- MIC (Pseudomonas aeruginosa; BBRI Pa-No. 24, Table 2): 50 µg/mL (≈ 86.6 µM)
- MIC (Pseudomonas aeruginosa; BBRI Pa-No. 25, Table 2): 1.6 µg/mL (≈ 2.77 µM)
- MIC (Pseudomonas aeruginosa; BBRI Pa-No. 26, Ps32, Table 2): 3.1 µg/mL (≈ 5.37 µM)
- MIC (Pseudomonas aeruginosa; BBRI Pa-No. 28, CPH10527/72, Table 2): 6.3 µg/mL (≈ 10.9 µM)
- MIC (Pseudomonas aeruginosa; BBRI Pa-No. 29, D122, Table 2): 3.1 µg/mL (≈ 5.37 µM)
- MIC (Pseudomonas aeruginosa; BBRI Pa-No. 30, Table 2): 6.3 µg/mL (≈ 10.9 µM)
- MIC (Pseudomonas aeruginosa; BBRI Pa-No. 31, Table 2): 1.6 µg/mL (≈ 2.77 µM)
- MIC (Pseudomonas aeruginosa; BBRI Pa-No. 32, Table 2): 6.3 µg/mL (≈ 10.9 µM)
- MIC (Pseudomonas aeruginosa; BBRI Pa-No. 33, Table 2): 25 µg/mL (≈ 43.3 µM)
- MIC (Pseudomonas aeruginosa; BBRI Pa-No. 34, Table 2): 6.3 µg/mL (≈ 10.9 µM)
- MIC (Pseudomonas aeruginosa; BBRI Pa-No. 35, Table 2): 25 µg/mL (≈ 43.3 µM)
- MIC (Pseudomonas aeruginosa; BBRI Pa-No. 36, Table 2): 0.4 µg/mL (≈ 0.693 µM)
- MIC (Pseudomonas aeruginosa; BBRI Pa-No. 37, Table 2): 6.3 µg/mL (≈ 10.9 µM)
- MIC (Pseudomonas aeruginosa; BBRI Pa-No. 38, Table 2): 12.5 µg/mL (≈ 21.6 µM)
- MIC (Pseudomonas aeruginosa; BBRI Pa-No. 39, Table 2): 3.1 µg/mL (≈ 5.37 µM)
- MIC (Pseudomonas aeruginosa; BBRI Pa-No. 41, Table 2): 6.3 µg/mL (≈ 10.9 µM)
- MIC (Pseudomonas aeruginosa; BBRI Pa-No. 42, Table 2): 12.5 µg/mL (≈ 21.6 µM)
- MIC (Pseudomonas aeruginosa; BBRI Pa-No. 43, Table 2): 6.3 µg/mL (≈ 10.9 µM)
- MIC (Pseudomonas aeruginosa; BBRI Pa-No. 44, Table 2): 6.3 µg/mL (≈ 10.9 µM)
- MIC (Pseudomonas aeruginosa; BBRI Pa-No. 51, Table 2): 6.3 µg/mL (≈ 10.9 µM)
- MIC (Pseudomonas aeruginosa; BBRI Pa-No. 52, Table 2): 6.3 µg/mL (≈ 10.9 µM)
- MIC (Pseudomonas aeruginosa; BBRI Pa-No. 53, Table 2): 6.3 µg/mL (≈ 10.9 µM)
- MIC (Pseudomonas aeruginosa; BBRI Pa-No. 54, Table 2): 6.3 µg/mL (≈ 10.9 µM)
- MIC (Pseudomonas aeruginosa; BBRI Pa-No. 55, Table 2): 6.3 µg/mL (≈ 10.9 µM)
- MIC (Pseudomonas aeruginosa; BBRI Pa-No. 56, Table 2): 6.3 µg/mL (≈ 10.9 µM)
- MIC (Pseudomonas aeruginosa; BBRI Pa-No. 57, Table 2): 3.1 µg/mL (≈ 5.37 µM)
- MIC (Pseudomonas aeruginosa; BBRI Pa-No. 58, Table 2): 12.5 µg/mL (≈ 21.6 µM)
- MIC (Pseudomonas aeruginosa; BBRI Pa-No. 59, Table 2): 6.3 µg/mL (≈ 10.9 µM)
- MIC (Pseudomonas aeruginosa; BBRI Pa-No. 60, Table 2): 3.1 µg/mL (≈ 5.37 µM)
- MIC (Pseudomonas aeruginosa; BBRI Pa-No. 61, Table 2): 6.3 µg/mL (≈ 10.9 µM)
- MIC (Pseudomonas aeruginosa; BBRI Pa-No. 62, Table 2): 12.5 µg/mL (≈ 21.6 µM)
- MIC (Pseudomonas aeruginosa; BBRI Pa-No. 64, Table 2): 6.3 µg/mL (≈ 10.9 µM)
- MIC (Pseudomonas aeruginosa; BBRI Pa-No. 65, Table 2): 3.1 µg/mL (≈ 5.37 µM)
- MIC (Pseudomonas aeruginosa; BBRI Pa-No. 66, Table 2): 3.1 µg/mL (≈ 5.37 µM)
- MIC (Pseudomonas aeruginosa; BBRI Pa-No. 67, Table 2): 12.5 µg/mL (≈ 21.6 µM)
- MIC (Pseudomonas aeruginosa; BBRI Pa-No. 68, Table 2): 12.5 µg/mL (≈ 21.6 µM)
- MIC (Pseudomonas aeruginosa; BBRI Pa-No. 69, Table 2): 25 µg/mL (≈ 43.3 µM)
- MIC (Pseudomonas aeruginosa; BBRI Pa-No. 70, K-Ps102 (CR-102), Table 2): 6.3 µg/mL (≈ 10.9 µM)
- MIC (Pseudomonas aeruginosa; GN315, BBRI Pa-No. 27, GN315, Table 2): 6.3 µg/mL (≈ 10.9 µM)
- MIC (Pseudomonas aeruginosa; GN4925, BBRI Pa-No. 45, GN4925, Table 2): 12.5 µg/mL (≈ 21.6 µM)
- MIC (S. enteritidis): 6.3 µg/mL (≈ 10.9 µM)
